Test results reported in PMC5814047, “Peptidic inhibitors of insulin-degrading enzyme with potential for dermatological applications discovered via phage display” (PLoS ONE, 2018).
Several values for one entry are separate records, joined by “and”; a condition that tells them apart may be missing. Equal entries are not always repeated. Ends that are not written are not given here.

Tests used:
[1] = molecular target: T1, IDE (Homo sapiens, UniProt P14735); test: Vulnerability of peptides to degradation by IDE: 0 vs 4 h pre-incubation, then FRET1 assay; type: biochemical; details: for Ki: Cheng-Prusoff from IC50, FRET1 KM 10 uM, substrate 5 uM; for remaining activity at 0.12207 µM / remaining activity at 0.488281 µM / remaining activity at 1.95312 µM / remaining activity at 7.8125 µM / remaining activity at 31.25 µM / remaining activity at 125 µM / remaining activity at 500 µM: 4 h, relative to DMSO-only controls, read-out: Percent Activity (normalized initial velocity of FRET1 hydrolysis); for remaining activity at 0.12207 µM: Cmpd 0.12207 uM; for remaining activity at 0.488281 µM: Cmpd 0.488281 uM; for remaining activity at 1.95312 µM: Cmpd 1.95312 uM; for remaining activity at 7.8125 µM: Cmpd 7.8125 uM; for remaining activity at 31.25 µM: Cmpd 31.25 uM; for remaining activity at 125 µM: Cmpd 125 uM; for remaining activity at 500 µM: Cmpd 500 uM; for IC50: FRET1 assay
T1 construct: made in house; host or cells: bacteria
T1 sequence (P14735 1-1019): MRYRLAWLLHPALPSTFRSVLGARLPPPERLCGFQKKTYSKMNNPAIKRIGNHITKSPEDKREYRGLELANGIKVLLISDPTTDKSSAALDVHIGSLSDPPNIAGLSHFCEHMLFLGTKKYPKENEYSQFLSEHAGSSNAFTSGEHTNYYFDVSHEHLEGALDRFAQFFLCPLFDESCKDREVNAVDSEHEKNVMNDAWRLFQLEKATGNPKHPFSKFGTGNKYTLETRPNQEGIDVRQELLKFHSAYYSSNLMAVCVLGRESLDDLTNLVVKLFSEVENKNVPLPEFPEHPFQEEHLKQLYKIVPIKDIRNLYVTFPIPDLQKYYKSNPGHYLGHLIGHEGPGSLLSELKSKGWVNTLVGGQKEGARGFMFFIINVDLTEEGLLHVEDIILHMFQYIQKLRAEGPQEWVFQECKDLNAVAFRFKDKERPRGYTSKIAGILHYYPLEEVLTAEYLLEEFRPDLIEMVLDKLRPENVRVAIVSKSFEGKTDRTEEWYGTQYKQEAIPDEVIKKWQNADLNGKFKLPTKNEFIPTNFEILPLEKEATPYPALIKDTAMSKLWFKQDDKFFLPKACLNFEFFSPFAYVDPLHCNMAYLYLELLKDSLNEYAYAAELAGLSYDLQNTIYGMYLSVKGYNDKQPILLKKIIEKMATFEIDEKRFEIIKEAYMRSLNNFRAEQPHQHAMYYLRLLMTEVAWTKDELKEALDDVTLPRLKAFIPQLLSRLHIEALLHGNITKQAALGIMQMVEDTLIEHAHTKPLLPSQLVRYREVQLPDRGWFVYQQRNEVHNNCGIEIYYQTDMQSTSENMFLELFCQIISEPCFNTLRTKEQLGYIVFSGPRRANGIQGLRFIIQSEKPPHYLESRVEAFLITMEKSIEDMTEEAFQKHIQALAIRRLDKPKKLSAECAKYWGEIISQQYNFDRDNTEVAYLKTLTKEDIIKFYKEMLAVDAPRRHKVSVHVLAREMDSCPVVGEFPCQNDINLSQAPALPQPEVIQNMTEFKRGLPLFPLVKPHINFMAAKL
Description: (§1) IDE activity was quantified by monitoring the degradation of Mca-[…](Dnp) (FRET1, 5 μM), fluoresceinated and biotinylated amyloid ß-protein (FAßB; 500 nM) or recombinant human insulin (50 nM) in PBS supplemented with 0.05% BSA. […] In vitro activity assays incorporated recombinant human IDE (1 nM) purified from bacteria. For quantitation of insulin degradation in primary murine skin fibroblasts, cells (1 x 10^5/well) were plated in 96-well plates and maintained in DMEM supplemented with 10% fetal bovine serum (FBS), 2mM glutamine, penicillin and streptomycin. After addition of insulin (10 nM or 100 nM), samples of conditioned medium were removed daily and quickly frozen, then insulin levels were quantified in parallel by ELISA according to manufacturer’s recommendations (Crystal Chem, Downers Grove, IL, USA). Assessment of the activity of P12-3A against a variety of matrix-metalloproteases was conducted using the Matrix Metalloproteinase (MMP) Inhibitor Profiling Kit, Fluorometric RED (Enzo Life Sciences, Inc., Farmingdale, NY, USA) according to manufacturer’s recommendations using the broad-spectrum MMP inhibitor, NNGH, as a positive control.

[2] = molecular target: T1, IDE; test: biochemical; details: for IC50: dose-response, FRET1; for IC50 <500 uM?: initial test at 500 uM; for remaining activity at 500 µM: individual replicates, read-out: Percent activity at 500 uM, Replicate 1-4
Description: The six selected peptide sequences (C7C-1, C7C-2, 12–1, 12–2, 12–3 and 12–4) were synthesized, together with a variety of modifications, yielding a total of 25 peptides (Table 1). […] Other modifications included N-terminal acetylation and C-terminal amidation, included to mimic the charge state of the peptides when incorporated in the phage coat protein (Table 1).
as §1

[3] = molecular target: T1, IDE; test: biochemical; details: for Ki: substrate recombinant human insulin 50 nM, Ki from IC50 with the Cheng-Prusoff equation
Description: The six selected peptide sequences (C7C-1, C7C-2, 12–1, 12–2, 12–3 and 12–4) were synthesized, together with a variety of modifications, yielding a total of 25 peptides (Table 1). For the 12-mer peptides, we synthesized variants of the parent peptides truncated at one or both termini, to test whether the entire sequence was necessary or not, in the hope that shorter, and thus less expensive, sequences might be effective. Other modifications included N-terminal acetylation and C-terminal amidation, included to mimic the charge state of the peptides when incorporated in the phage coat protein (Table 1). To assess the extent to which these peptide sequences inhibit IDE, we quantified their potency in protease activity assays using recombinant human IDE and two different substrates: FRET1, a fluorogenic peptide, and recombinant human insulin.
IDE activity was quantified by monitoring the degradation of Mca-[…](Dnp) (FRET1, 5 μM), fluoresceinated and biotinylated amyloid ß-protein (FAßB; 500 nM) or recombinant human insulin (50 nM) in PBS supplemented with 0.05% BSA. FRET1 degradation was measured by changes in fluorescence (λex = 340 nm, λem = 420 nm); FAßB degradation was monitored by fluorescence polarization (λex = 488 nm, λem = 525 nm), as described; and insulin degradation was quantified by ELISA. In vitro activity assays incorporated recombinant human IDE (1 nM) purified from bacteria. For quantitation of insulin degradation in primary murine skin fibroblasts, cells (1 x 10^5/well) were plated in 96-well plates and maintained in DMEM supplemented with 10% fetal bovine serum (FBS), 2mM glutamine, penicillin and streptomycin. After addition of insulin (10 nM or 100 nM), samples of conditioned medium were removed daily and quickly frozen, then insulin levels were quantified in parallel by ELISA according to manufacturer’s recommendations (Crystal Chem, Downers Grove, IL, USA). Assessment of the activity of P12-3A against a variety of matrix-metalloproteases was conducted using the Matrix Metalloproteinase (MMP) Inhibitor Profiling Kit, Fluorometric RED (Enzo Life Sciences, Inc., Farmingdale, NY, USA) according to manufacturer’s recommendations using the broad-spectrum MMP inhibitor, NNGH, as a positive control.

[4] = 4-hr incubation, individual runs
[5] = 4-hr incubation, individual replicates, read-out: IC50s
[6] = 4-hr incubation, mean of 2 replicates, read-out: IC50s, Mean
[7] = Cheng-Prusoff, KM 10 uM, substrate concentration 5 uM, read-out: Ki values, Mean
[8] = individual runs, read-out: IC50s, Run 1-6
[9] = substrate FRET1 5 μM, Ki from IC50 with the Cheng-Prusoff equation, read-out: Ki FRET1
[10] = insulin ELISA assay, dose-response, Replicates 1-3, read-out: IC50s, individual replicates
[11] = insulin ELISA assay, dose-response, N=3, read-out: IC50s, Mean

| Compound | Ki ([1]; 4-hr incubation) [µM] | remaining activity at 0.12207 µM [1, 4] [%] | remaining activity at 0.488281 µM [1, 4] [%] | remaining activity at 1.95312 µM [1, 4] [%] | remaining activity at 7.8125 µM [1, 4] [%] | remaining activity at 31.25 µM [1, 4] [%] | remaining activity at 125 µM [1, 4] [%] | remaining activity at 500 µM [1, 4] [%] | IC50 [1, 5] | IC50 [1, 6] [µM] | Ki [2, 7] [µM] | IC50 [2, 8] | IC50 ([2]; read-out: IC50s, Mean) [µM] | IC50 <500 uM? [2] | remaining activity at 500 µM ([2]; judged as IC50 <100 uM?) [%] | Ki [2, 9] [µM] | IC50 [3, 10] | IC50 [3, 11] [µM] | Ki [3] [µM] | further results |
| --- | --- | --- | --- | --- | --- | --- | --- | --- | --- | --- | --- | --- | --- | --- | --- | --- | --- | --- | --- | --- |
| WSPISGKFFQRF-NH2 [P12-4A] | 43.5 | 78.9 | 81.8 | 85.3 | 83.2 | 35.7 | 51.3 | 27.1 | 63.7 µM and 66.6 µM | 65.2 | 4.25 | 6.41 µM and 2.96 µM and 9.75 µM | 6.37 | YES | 17.7 | 4.2 ± 1.3 | 6.44 µM and 6.45 µM and 2.48 µM | 5.12 | 2.6 ± 0.7 | IC50 <10 uM? ([3]; initial test at 10 uM using insulin (100 nM)): YES |
| CC(=O)N[C@@H](Cc1c[nH]c2ccccc12)C(=O)N[C@@H](CC(=O)O)C(=O)N[C@@H](Cc1ccccc1)C(=O)N[C@@H](CCCNC(=N)N)C(=O)N[C@@H](CCC(N)=O)C(=O)N[C@@H](Cc1c[nH]c2ccccc12)C(=O)N[C@@H](Cc1c[nH]c2ccccc12)C(=O)N[C@@H](CCC(N)=O)C(N)=O [P12-1D] | 515 | 102 | 91.2 | 99.3 | 97.1 | 90.2 | 47.6 | 20.6 | 791 µM and 755 µM | 773 |  |  | 210 | YES | 61.2 | > 100 |  |  | > 10 | IC50 ([1]; 0-hr incubation (immediately after combining enzyme and peptide), individual runs, read-out: IC50s): 138 µM and 282 µM; remaining activity at 500 µM ([2]; initial test, percent of initial velocity relative to DMSO-only controls): 13.4%; IC50 ([3]; from initial test at 10 uM using insulin (100 nM), read-out: IC50 (summary of results, listed in Table 1)): > 10 µM |
| VHWDFRQW-NH2 [P12-1B] | 131 | 90.2 | 82.8 | 80.5 | 70.1 | 51.8 | 36.3 | 9.02 | 200 µM and 193 µM | 197 | 40.9 | 52.2 µM and 51.3 µM and 80.5 µM | 61.4 | YES | 32.1 | 41 ± 6.4 | 20.6 µM and 9.35 µM and 12.2 µM | 14 | 7 ± 1.7 | IC50 ([1]; 0-hr incubation, mean of runs, read-out: IC50s, Mean): 61.4 µM |
